In series [1] the target is T1, Tie-2 (Homo sapiens, UniProt Q02763).
T1 construct: GST-fusion proteins of the kinase domains of several tyrosine kinase receptors; GST
In words: standard tyrosine kinase assay: phosphorylation of poly(GluTyr) by GST-fusion kinase domain. The series is classed as biochemical. To be noted: kinase inhibitory profile.

Series [2] relates to other RTKs including VEGF receptors. The series can be described thus: standard tyrosine kinase assay, other RTKs. The series is classed as biochemical.
Series [3] addresses T2, Flk-1 (Mus musculus, UniProt P35918).
T2 construct: GST-fusion proteins of the kinase domains of several tyrosine kinase receptors; GST
In words: standard tyrosine kinase assay: phosphorylation of poly(GluTyr) by GST-fusion kinase domain. It counts as biochemical. To be noted: kinase inhibitory profile, Table I.

Series [4] concerns the target T3, Flt-1 (Homo sapiens, UniProt P17948).
T3 construct: GST-fusion proteins of the kinase domains of several tyrosine kinase receptors; GST
T3 sequence (P17948 827-1158 limits assumed): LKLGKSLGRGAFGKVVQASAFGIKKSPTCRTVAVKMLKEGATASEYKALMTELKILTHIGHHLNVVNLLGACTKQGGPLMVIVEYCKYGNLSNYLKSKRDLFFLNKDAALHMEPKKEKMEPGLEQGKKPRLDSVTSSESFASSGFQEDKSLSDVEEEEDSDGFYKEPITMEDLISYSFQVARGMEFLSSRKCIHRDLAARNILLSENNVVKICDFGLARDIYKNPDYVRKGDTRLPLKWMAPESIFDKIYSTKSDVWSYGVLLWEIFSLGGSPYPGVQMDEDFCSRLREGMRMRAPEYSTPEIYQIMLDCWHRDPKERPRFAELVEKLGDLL
The series is described as above. It counts as biochemical.

For series [5], the system named is VEGF receptors. The series can be described thus: cellular autophosphorylation assay, Chinese hamster ovary cells transfected with RTK gene. To be noted: transfected CHO cells.
Protocol: (§1) In vivo activity requires drugs to enter cells and therefore agents are tested in cellular autophosphorylation assays, using Chinese hamster ovary cells transfected with one of several RTK genes.
The subject of series [6] is PDGF receptors. Described as above. The series is classed as cell-based. To be noted: transfected CHO cells.
Protocol: as §1
For series [7], the target named is T4, C-Met (Homo sapiens, UniProt P08581).
T4 construct: GST-fusion proteins of the kinase domains of several tyrosine kinase receptors; GST
The series can be described thus: standard tyrosine kinase assay: phosphorylation of poly(GluTyr) by GST-fusion kinase domain. The conditions noted are these: kinase inhibitory profile. It counts as biochemical.

Series [8] concerns the target insulin receptor (Homo sapiens, UniProt P06213). The series can be described thus: cellular autophosphorylation assay, Chinese hamster ovary cells transfected with RTK gene. The conditions noted are these: transfected CHO cells.
Protocol: as §1
In series [9] the target is c-erbB2 (Homo sapiens, UniProt P04626). The description is as above. The conditions noted are these: transfected CHO cells.
Protocol: as §1
Series [10] deals with c-Kit (Homo sapiens, UniProt P10721). The conditions noted are these: transfected CHO cells.
For series [11], the system named is retinal vessels in adult mice. The series can be described thus: effect on retinal vessels in adult mice. It counts as in vivo, C57BL6J mice. To be noted: 50 mg/kg/day, 5 days.
Protocol: Ischemic retinopathy is produced in C57/BL6J mice by the following method: Seven-day-old mice and their mothers are placed in an airtight incubator and exposed to an atmosphere of 75±3% oxygen for 5 days. Incubator temperature is maintained at 23±2° C., and oxygen is measured every 8 hours with an oxygen analyzer. After 5 days, the mice are removed from the incubator, placed in room air, and drug treatment is begun. […] Vehicle (control) or vehicle containing various concentrations of drug (volume =50 μl in neonates and 100 μl in adult mice) is placed in the stomach by gavage. After 5 days of treatment at P17, mice are sacrificed, eyes are rapidly removed and frozen in optimum cutting temperature embedding compound (OCT; Miles Diagnostics, Elkhart, IN) or fixed in 10% phosphate-buffered formalin and embedded in paraffin. Adult C57BL6J mice are also treated by gavage with drug or vehicle and after 5 days, they are sacrificed and their eyes are processed for frozen or paraffin sections. […] Slides are rinsed with 0.05M Tris-buffered saline, pH 7.6 (TBS) and incubated 2 hours at room temperature with biotinylated lectin. […] Some slides are counterstained with hematoxyfn and all are mounted with Cytoseal. […] The mean of the 13 measurements from each eye is used as a single experimental value.
Series [12] concerns mice with ischemic retinopathy. In words: retinal neovascularization in mice with oxygen-induced ischemic retinopathy. To be noted: P17 mice.
Protocol: Ischemic retinopathy is produced in C57/BL6J mice by the following method: Seven-day-old mice and their mothers are placed in an airtight incubator and exposed to an atmosphere of 75±3% oxygen for 5 days. Incubator temperature is maintained at 23±2° C., and oxygen is measured every 8 hours with an oxygen analyzer. After 5 days, the mice are removed from the incubator, placed in room air, and drug treatment is begun. […] Vehicle (control) or vehicle containing various concentrations of drug (volume =50 μl in neonates and 100 μl in adult mice) is placed in the stomach by gavage. After 5 days of treatment at P17, mice are sacrificed, eyes are rapidly removed and frozen in optimum cutting temperature embedding compound (OCT; Miles Diagnostics, Elkhart, IN) or fixed in 10% phosphate-buffered formalin and embedded in paraffin. Adult C57BL6J mice are also treated by gavage with drug or vehicle and after 5 days, they are sacrificed and their eyes are processed for frozen or paraffin sections.
Slides are rinsed with 0.05M Tris-buffered saline, pH 7.6 (TBS) and incubated 2 hours at room temperature with biotinylated lectin. […] Some slides are counterstained with hematoxyfn and all are mounted with Cytoseal.
The entire eye is sampled by staining sections roughly 50-60 μm apart, which provided 13 sections per eye for analysis. […] The mean of the 13 measurements from each eye is used as a single experimental value.
For series [13], the system named is developing retinal vessels of neonatal mice. The series can be described thus: drug treatment of mice during retinal vascular development. The series is classed as in vivo, C57/BL6J mice. As for the experimental part:
[…] of newborn C57/BL6J mice are divided into treatment and control groups which received daily subcutaneous injections of 10 mg/kg of drug or vehicle, respectively. At P7 or P10, mice are anesthetized with ether, and perfused with 1 ml of phosphate-buffered saline containing 50 mg/ml of fluorescein-labeled dextran (2×10^6 average mw, Sigma, St. Louis, Mo.).. The eyes are removed and fixed for 1 hour in 10% phosphate-buffered formalin. The cornea and […] are removed and the entire retina is carefully dissected from the eyecup, radially cut from the edge of the retina to the equator in all 4 quadrants, and flat-mounted in Aquamount. with photoreceptors facing upward.

Series [14] has as its system mice with choroidal neovascularization. The series can be described thus: laser-induced choroidal neovascularization in mice. To be noted: 50 mg/kg/day by gavage, two weeks after laser.

Molecules are shown by their SMILES.

This is an account of results in US20030171375A1, “Method for treating ocular neovascular diseases” (priority 2002, published 2003).

Sequence of c-Kit (P10721 26-976): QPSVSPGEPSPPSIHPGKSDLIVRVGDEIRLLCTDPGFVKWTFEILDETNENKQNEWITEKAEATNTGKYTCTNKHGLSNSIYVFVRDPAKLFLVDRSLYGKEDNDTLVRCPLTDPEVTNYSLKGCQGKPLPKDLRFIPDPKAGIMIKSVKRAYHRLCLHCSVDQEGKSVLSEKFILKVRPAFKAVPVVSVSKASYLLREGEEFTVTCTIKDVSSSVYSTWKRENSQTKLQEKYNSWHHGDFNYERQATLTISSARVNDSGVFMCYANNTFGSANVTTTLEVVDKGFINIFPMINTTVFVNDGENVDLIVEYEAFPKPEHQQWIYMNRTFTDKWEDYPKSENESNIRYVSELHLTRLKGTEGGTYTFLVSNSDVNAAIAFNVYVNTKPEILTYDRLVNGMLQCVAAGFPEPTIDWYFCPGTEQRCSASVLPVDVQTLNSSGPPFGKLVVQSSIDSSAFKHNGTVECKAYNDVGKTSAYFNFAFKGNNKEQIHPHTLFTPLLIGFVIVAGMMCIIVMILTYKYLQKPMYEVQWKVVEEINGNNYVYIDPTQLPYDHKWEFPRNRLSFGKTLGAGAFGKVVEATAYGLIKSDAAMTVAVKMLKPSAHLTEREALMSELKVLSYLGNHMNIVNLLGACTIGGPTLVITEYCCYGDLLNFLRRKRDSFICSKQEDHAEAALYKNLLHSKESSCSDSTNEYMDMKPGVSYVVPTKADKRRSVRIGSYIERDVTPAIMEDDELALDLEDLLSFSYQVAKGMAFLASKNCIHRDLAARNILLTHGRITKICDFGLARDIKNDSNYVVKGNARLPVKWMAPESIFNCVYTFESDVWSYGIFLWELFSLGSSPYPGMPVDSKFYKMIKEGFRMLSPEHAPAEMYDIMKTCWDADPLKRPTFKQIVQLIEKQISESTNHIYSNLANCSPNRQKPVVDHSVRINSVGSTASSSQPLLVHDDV
T2 sequence (P35918 832-1160 limits assumed): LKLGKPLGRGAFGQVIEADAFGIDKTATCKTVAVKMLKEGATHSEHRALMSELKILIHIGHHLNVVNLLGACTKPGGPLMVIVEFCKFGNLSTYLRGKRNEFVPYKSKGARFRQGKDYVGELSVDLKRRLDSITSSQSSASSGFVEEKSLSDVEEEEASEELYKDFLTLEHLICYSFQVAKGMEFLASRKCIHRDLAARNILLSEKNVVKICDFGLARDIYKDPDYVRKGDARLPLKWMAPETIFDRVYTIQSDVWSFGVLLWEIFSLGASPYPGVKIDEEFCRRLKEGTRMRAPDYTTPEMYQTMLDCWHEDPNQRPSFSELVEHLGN
Sequence of c-erbB2 (P04626 23-1255): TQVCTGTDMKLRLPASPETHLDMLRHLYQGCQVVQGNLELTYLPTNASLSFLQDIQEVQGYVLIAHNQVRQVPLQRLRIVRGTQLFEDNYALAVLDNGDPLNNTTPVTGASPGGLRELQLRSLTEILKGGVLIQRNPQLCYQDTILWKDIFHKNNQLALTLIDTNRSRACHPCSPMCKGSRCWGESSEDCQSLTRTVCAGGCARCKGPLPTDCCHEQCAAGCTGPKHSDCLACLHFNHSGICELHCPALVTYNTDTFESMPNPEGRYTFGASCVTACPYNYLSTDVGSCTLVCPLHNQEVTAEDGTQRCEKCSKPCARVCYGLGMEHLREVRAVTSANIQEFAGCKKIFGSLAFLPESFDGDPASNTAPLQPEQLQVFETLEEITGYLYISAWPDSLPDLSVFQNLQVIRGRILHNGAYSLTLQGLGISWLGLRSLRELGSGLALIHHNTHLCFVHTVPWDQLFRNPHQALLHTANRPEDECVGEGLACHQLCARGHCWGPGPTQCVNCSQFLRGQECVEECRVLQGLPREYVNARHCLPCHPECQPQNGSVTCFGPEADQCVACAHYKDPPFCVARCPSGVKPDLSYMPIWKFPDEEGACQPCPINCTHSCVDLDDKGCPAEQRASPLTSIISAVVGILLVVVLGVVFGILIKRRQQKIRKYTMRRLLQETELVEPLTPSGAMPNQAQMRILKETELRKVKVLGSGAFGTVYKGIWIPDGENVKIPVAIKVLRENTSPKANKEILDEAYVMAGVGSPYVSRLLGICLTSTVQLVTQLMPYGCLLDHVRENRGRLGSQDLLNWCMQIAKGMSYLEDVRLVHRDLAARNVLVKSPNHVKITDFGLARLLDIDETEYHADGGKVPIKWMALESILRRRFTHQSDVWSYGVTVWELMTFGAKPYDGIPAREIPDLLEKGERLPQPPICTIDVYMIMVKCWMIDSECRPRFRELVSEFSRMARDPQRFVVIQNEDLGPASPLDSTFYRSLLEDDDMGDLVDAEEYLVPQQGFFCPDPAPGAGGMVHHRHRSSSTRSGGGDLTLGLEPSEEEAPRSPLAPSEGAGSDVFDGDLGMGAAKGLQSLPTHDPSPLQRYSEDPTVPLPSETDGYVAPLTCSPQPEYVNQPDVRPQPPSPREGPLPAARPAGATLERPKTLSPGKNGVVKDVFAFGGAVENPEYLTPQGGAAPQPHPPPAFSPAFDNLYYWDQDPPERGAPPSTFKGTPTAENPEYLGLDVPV
Sequence of insulin receptor (P06213 28-1382, species assumed): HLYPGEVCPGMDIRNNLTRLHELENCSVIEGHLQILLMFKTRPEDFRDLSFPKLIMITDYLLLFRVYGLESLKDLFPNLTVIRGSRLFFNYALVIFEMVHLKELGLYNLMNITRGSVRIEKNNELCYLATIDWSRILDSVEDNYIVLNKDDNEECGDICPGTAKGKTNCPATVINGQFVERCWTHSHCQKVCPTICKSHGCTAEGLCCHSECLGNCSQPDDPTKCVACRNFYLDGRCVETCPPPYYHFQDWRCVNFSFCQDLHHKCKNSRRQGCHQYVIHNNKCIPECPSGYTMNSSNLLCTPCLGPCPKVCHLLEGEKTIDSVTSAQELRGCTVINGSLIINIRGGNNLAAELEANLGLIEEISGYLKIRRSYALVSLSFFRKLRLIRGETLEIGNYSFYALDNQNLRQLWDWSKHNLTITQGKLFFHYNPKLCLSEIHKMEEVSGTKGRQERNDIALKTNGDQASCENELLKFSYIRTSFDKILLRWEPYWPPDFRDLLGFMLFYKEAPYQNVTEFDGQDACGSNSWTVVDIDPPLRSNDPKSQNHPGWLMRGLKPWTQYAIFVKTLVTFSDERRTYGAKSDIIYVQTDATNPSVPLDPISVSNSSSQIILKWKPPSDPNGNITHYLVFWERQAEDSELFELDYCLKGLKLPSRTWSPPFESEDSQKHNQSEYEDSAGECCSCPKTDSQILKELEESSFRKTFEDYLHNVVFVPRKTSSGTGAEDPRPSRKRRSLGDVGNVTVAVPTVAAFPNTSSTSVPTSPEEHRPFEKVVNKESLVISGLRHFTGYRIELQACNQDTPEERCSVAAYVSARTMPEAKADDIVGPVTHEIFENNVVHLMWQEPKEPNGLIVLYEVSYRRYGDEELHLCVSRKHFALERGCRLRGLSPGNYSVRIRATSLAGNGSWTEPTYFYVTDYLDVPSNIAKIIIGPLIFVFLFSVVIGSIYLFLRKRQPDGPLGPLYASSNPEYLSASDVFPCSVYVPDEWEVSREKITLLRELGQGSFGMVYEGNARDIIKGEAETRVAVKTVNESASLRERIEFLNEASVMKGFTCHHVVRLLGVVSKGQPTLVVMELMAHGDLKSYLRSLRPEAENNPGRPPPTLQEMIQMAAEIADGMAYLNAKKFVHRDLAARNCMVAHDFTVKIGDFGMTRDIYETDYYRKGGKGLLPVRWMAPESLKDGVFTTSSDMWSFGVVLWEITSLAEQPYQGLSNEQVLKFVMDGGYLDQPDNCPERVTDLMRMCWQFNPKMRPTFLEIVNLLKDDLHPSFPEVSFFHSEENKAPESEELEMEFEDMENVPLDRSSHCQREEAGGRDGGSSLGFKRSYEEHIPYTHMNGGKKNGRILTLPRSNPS
T4 sequence (P08581 1078-1345 limits assumed): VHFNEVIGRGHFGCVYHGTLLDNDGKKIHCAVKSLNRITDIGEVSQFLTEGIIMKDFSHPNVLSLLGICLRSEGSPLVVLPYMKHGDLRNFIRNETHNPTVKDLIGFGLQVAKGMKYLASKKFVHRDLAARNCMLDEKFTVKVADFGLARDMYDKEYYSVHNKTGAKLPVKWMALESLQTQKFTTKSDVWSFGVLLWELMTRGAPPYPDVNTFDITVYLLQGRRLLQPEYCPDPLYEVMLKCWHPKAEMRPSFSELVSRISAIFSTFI
T1 sequence (Q02763 824-1096 limits assumed, species assumed): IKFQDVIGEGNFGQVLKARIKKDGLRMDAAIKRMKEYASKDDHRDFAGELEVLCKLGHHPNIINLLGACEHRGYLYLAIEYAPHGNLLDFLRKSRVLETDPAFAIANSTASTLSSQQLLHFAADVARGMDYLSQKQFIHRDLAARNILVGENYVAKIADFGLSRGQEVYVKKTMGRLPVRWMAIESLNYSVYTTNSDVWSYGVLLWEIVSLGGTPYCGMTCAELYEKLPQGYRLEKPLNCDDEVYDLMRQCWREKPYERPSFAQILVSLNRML

As to `Cc1ccc(NC(=O)c2ccccc2)cc1Nc1nccc(-c2cccnc2)n1` [CGP 53 716], the IC50 in [1] was more than 1 µM; in series [3], more than 1 µM; in series [4] (kinase inhibitory profile) it was more than 1 µM; in series [7], more than 10 µM. Besides, the “inhibitory activity on other RTKs including VEGF receptors” value in series [2] is “little or no inhibitory activity”. Further, in series [5], the “inhibition of autophosphorylation of VEGF receptors” value (“inhibition … of VEGF receptors” below) is listed as “poor inhibitors”. Moreover, in series [6], the “inhibition of autophosphorylation of PDGF receptors” value (“inhibition … of PDGF receptors” below) is on record as “potent inhibitors”.
For `Cc1ccc(NC(=O)c2ccc(CN3CCN(C)CC3)cc2)cc1Nc1nccc(-c2cccnc2)n1` [CGP 57 148B], the “inhibitory activity on other RTKs including VEGF receptors” value in [2] was “little or no inhibitory activity”. The “inhibition … of VEGF receptors” value in series [5] is given as “poor inhibitors”. Besides, the “inhibition … of PDGF receptors” value in series [6] was “potent inhibitors”.
On to `Clc1ccc(Nc2nnc(Cc3ccncc3)c3ccccc23)cc1` [CGP 79787D], for which the “inhibition of autophosphorylation of insulin receptor” value in series [8] was “poor inhibitor”. Besides, the “inhibition of autophosphorylation of c-erbB2” value in [9] is given as “poor inhibitor”. The “inhibition of autophosphorylation of c-Kit” value in series [10] was “inhibits”. The “total area of endothelial staining in the retina or appearance of retinal vessels versus vehicle” value in series [11] is on record as “no difference”. Besides, in [12] (0.25 mg/kg), the “decrease of total endothelial staining in the retina” value was “not statistically significant” and the “staining in the inner nuclear layer” value is given as “no identifiable decrease”. In series [12] (2.5 mg/kg twice a day), the “endothelial cell staining in the retina” value was “significantly less than vehicle-treated controls” and the “endothelial staining in the inner nuclear layer” value is recorded as “some decrease”. Also, the “endothelial cell staining in inner nuclear layer and outer plexiform layer (deep capillary bed)” value in [12] (25 mg/kg twice a day) was “striking absence”. In addition, the “neovascularization (endothelial cells on the surface of the retina)” value in series [12] (25 mg/kg twice a day, gavage, 5 days) is on record as “complete inhibition”. The “endothelial cell staining within the retina” value in [12] (25 mg/kg twice a day, gavage, 5 days, versus vehicle) is listed as “dramatic decrease”. The “extension of retinal vessels toward the periphery at P7” value in [13] (10 mg/kg daily injections from P0, P7) is given as “only extended about half way to the periphery”. Besides, the “extension of superficial capillary bed at P10” value in series [13] (10 mg/kg daily injections from P0, P10) is reported as “has not yet reached the edge of the retina”. The “inhibition of phosphorylation by kinase domain of human VEGF receptor 1” value in series [4] was “good inhibitor”. The “inhibition … of VEGF receptors” value in [5] was “inhibits”. Besides, in series [6], the “inhibition … of PDGF receptors” value is “inhibits”. Also, in [14], the “appearance of overlying retinal vessels” value is “appeared normal” and the “choroidal neovascularization at site of laser-induced rupture of Bruch's membrane” value is listed as “very little if any choroidal neovascularization”.
